The results in this text go back to patent US20260133203A1, “DETECTION OF FUMARATE-DERIVED MODIFICATION IN A TEST SAMPLE” (UNIVERSITY OF SOUTH CAROLINA, priority 2017, published 2026).

Counter-ions that a name gives are not always drawn.

This assay relates to neurons and astrocytes. Put plainly: LC-MS/MS identification of succinated proteins, neurons and astrocytes overall. The assay is classed as cell-based. As to conditions: both neurons and astrocytes. As to the method: For the identification of succination sites, 60 μg of protein from primary neurons, 200 μg of protein from primary astrocytes or 120 μg of protein from differentiated N1E-115 neurons were resolved by SDS-PAGE, and the gels were stained with Coomassie Brilliant Blue. After de-staining, all protein bands were excised from the gels and subjected to in-gel digestion with trypsin. Briefly, proteins were reduced with 10 mM dithiothreitol and alkylated with 170 mM 4-vinylpyridine. Trypsin digestion was carried out overnight at 37° C. in the presence of 1.5 ng sequence grade modified trypsin (Promega®, Madison, WI) in 50 mM ammonium bicarbonate. After gel extraction, the peptides were re-suspended in 1% acetic acid and analyzed on a DionexTM […] system (Thermo ScientificTM, Rockford, IL) coupled to an Orbitrap Velos ProTM mass spectrometer (Thermo ScientificTM, Rockford, IL). The LC solvents were 2% acetonitrile/0.1% formic acid (Solvent A) and 80% acetonitrile/0.1% formic acid (Solvent B). […] The data-dependent acquisition (DDA) data were analyzed using Proteome DiscovererTM 1.4 software with SEQUEST search engine against the uniprot_ref_mouse database (2014-10-03 version, 52,474 proteins) or uniprot_ref_rat database (2011-5-11 version, 39765 proteins) with Xcorr>1 validation (+2) and an allowance for 2 missed cleavages. […]

Regarding `COC(=O)/C=C/C(=O)OC` [DMF, dimethyl fumarate], the “number of distinct protein subunits directly modified by either DMF or MMF” value turned out to be 24.
